This note sets out measurements from US12173018B2, “Penicillin-binding protein inhibitors” (priority 2018, dated 2024).

Experiment [1] addresses E. coli PBP3 (Escherichia coli (strain K12), UniProt P0AD68). The experiment in a line: E. coli PBP3 Bocillin-FL fluorescence polarization competition binding assay. The text has this:
To determine the ability of boronic acid-based test PBP inhibitors to bind Penicillin Binding Proteins (PBPs), Bocillin-FL (fluorescently-labeled penicillin V; ThermoFisher Scientific) was used in a fluorescence polarization (FP) competition binding assay to assess inhibitor binding to PBP2, PBP3 or PBP4 from Escherichia coli. PBPs were cloned and purified as described previously (King, D. T, et al., ACS Infectious Diseases 2015, 1, 175-184). To establish assay conditions for competition binding, an enzyme titration/saturation binding experiment was initially performed. Bocillin-FL was prepared at 0.2 μM in a buffer comprised of 50 mM Hepes (pH 8.0), 300 mM NaCl and 5% (v/v) glycerol. Saturation binding was performed by mixing 40 μl of PBP solutions ranging in concentrations from 0-12 μM with 40 μl of the 0.2 μM Bocillin-FL solution, in individual wells of a black 384-well microplate. FP was measured immediately upon mixing (Excitation, 490 nm; Emission, 520 nm; g-factor, 0.96), using a Cytation3 (BioTek) microplate reader and measured continuously for up to 120 minutes. […] Assays (80 μl final volume) were performed with PBPs at a final concentration of 1.5 μM, Bocillin-FL at 0.1 μM and beta-lactam concentrations that ranged from 0-1000 μM. […] Bocillin-FL was added and the FP immediately measured for 60 minutes (90 minutes for PBP2). The beta-lactam potency was reported as the concentration of beta-lactam required to reduce binding of Bocillin-FL by […] (EC50). […] Binding assays for boronic acid PBP inhibitors were performed in an identical fashion.
On the technique in general: Polarisation of emitted light reports the rotation of a fluorescent probe.

The test system of experiment [2] is E. coli ATCC 25922. The experiment in a line: Broth microdilution MIC, E. coli ATCC 25922. It counts as cell-based. The note with it: Escherichia coli. Here is the method:
(§1) To determine the ability of test compounds to potentiate the inhibition of the growth of bacterial strains, classic cell based broth microdilution minimum inhibitory concentration (MIC) assays were employed. MIC assays are performed according to CLSI methods except where otherwise noted (CLSI, 2011 and CLSI, 2009). The reference type strain E. coli ATCC 25922, the wild-type parent strain E. coli AG100, the hyper-permeable E. coli 901C and E. coli D22 and the E. coli AG100A strain lacking the acrAB efflux pump encoding genes were used to determine the ability of the PBP inhibitors to penetrate the outer membrane of gram-negative bacteria and inhibit bacterial growth. […] The P. aeruginosa PAO1, P. aeruginosa ATCC 27853 and A. baumannii ATCC 19606, along with the hyper-permeable P. aeruginosa ATCC 35151 and an engineered efflux pump-compromised strain of P. aeruginosa (ΔmexAB-oprM) were used to determine the ability of PBP inhibitors to penetrate the outer membrane of P. aeruginosa and A. baumannii and assess antibacterial activity against these important gram-negative organisms.
(§2) Briefly, cryo-preserved bacterial cultures of challenge strains are streaked for isolation on appropriate agar medium, in this case Mueller Hinton II agar. Following incubation to allow growth of the colonies, plates are sealed with parafilm and stored refrigerated for up to two weeks. For preparation of assay inoculum and to ensure low variability, at least 5 colonies are picked from the agar plates with an inoculating loop and aseptically transferred to a culture tube containing 3 mL of Mueller-Hinton Broth (supplemented with divalent cations to required levels based on Manufacturers' certification). The broth culture is grown for 3-5 hours at 37° C. with shaking at 200 rpm. Meanwhile, 2-fold serial dilutions of test compounds are conducted in a 96 well plate with a final volume of 75 μL per well at 2-fold the final desired concentration. After the dilution plates are set up the growing cultures are then diluted in a cuvette containing MH II broth and the optical density is measured at 600 nm. The Inoculum is diluted such that 75 μL of this culture in Mueller-Hinton Broth results in a starting bacterial concentration of 5×10^5 CFU/mL when added to the dilution plates. The plates are incubated for 16-20 hours at 37° C. The MIC values are read visually as the lowest concentration well with no bacterial growth.
For orientation: In broth dilution the organism is exposed to a series of concentrations in liquid medium.

In experiment [3] the test system is E. coli AG100. The experiment in a line: Broth microdilution MIC, E. coli AG100 (wild-type parent). The note with it: Escherichia coli; wild-type parent E. coli AG100, broth microdilution; read-out: MIC E. coli AG100. The experiment is classed as cell-based. The method, then: To determine the ability of test compounds to potentiate the inhibition of the growth of bacterial strains, classic cell based broth microdilution minimum inhibitory concentration (MIC) assays were employed.
as §2

Experiment [4] has as its system E. coli 901C. The experiment in a line: microbe, parasite or virus in culture. The note with it: Escherichia coli; hyper-permeable E. coli 901C, broth microdilution; read-out: MIC E. coli 901C. It counts as cell-based. Here is the method: as §1, §2
Experiment [5] deals with E. coli AG100A. The experiment in a line: microbe, parasite or virus in culture. It counts as cell-based. The note with it: Escherichia coli, read-out: MIC E. coli AG100A. Here is the method: as §1, §2
Experiment [6] relates to E. coli D22. Kind of experiment: microbe, parasite or virus in culture. As to conditions: Escherichia coli; hyper-permeable E. coli D22, broth microdilution; read-out: MIC E. coli D22. It counts as cell-based. Here is the method:
as §1, §2

Experiment [7] concerns K. pneumoniae SI-117. Kind of experiment: microbe, parasite or virus in culture. The experiment is classed as cell-based. The note with it: Klebsiella pneumoniae, SI117, read-out: MIC K. pneumoniae SI-117. Here is the method: as §1, §2
In experiment [8] the test system is K. pneumoniae UMM. Kind of experiment: microbe, parasite or virus in culture. The experiment is classed as cell-based. As to conditions: Klebsiella pneumoniae; K. pneumoniae UMM producing SHV-5 and KPC-2; read-out: MIC K. pneumoniae UMM. The method, then:
as §1, §2

The subject of experiment [9] is K. pneumoniae 848844. Kind of experiment: microbe, parasite or virus in culture. The experiment is classed as cell-based, Klebsiella pneumoniae. As to conditions: Klebsiella pneumoniae; K. pneumoniae 848844 producing SHV-11 and KPC-2; read-out: MIC K. pneumoniae 848844. Here is the method:
as §1, §2

The mark [10] stands for this setting: ATCC25922, E. coli ATCC 25922, broth microdilution, read-out: MIC E. coli 25922.
The mark [11] stands for this setting: fluorescence polarization competition binding with Bocillin-FL, read-out: E. coli K12 PBP3 Potency.

Where two headings read alike, the source gives them in different places.

E. coli PBP3, sequence (P0AD68 whole entry): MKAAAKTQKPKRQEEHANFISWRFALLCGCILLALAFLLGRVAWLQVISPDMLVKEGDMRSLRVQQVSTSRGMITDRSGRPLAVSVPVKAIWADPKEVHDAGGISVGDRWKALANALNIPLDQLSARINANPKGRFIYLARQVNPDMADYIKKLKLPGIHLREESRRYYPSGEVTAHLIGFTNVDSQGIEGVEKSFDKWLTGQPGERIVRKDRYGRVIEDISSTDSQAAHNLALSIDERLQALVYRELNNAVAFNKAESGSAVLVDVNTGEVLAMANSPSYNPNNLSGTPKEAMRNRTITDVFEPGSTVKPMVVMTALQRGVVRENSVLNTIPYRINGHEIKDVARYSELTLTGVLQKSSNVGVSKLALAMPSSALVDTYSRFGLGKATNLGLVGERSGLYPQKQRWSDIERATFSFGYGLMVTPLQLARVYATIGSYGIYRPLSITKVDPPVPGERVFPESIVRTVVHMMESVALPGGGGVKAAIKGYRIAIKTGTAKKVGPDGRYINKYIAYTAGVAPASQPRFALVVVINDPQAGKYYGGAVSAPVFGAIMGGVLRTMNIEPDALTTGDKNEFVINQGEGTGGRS

For the molecule `CCN1CCN(C(=O)N[C@H](C(=O)N[C@H]2Cc3cccc(C(=O)O)c3OB2O)c2ccc(O)c(F)c2)C(=O)C1=O` [Example 155, (R)-3-((S)-2-(4-ethyl-2,3-dioxopiperazine-1-carboxamido)-2-(3-fluoro-4-hydroxyphenyl)acetamido)-2-hydroxy-3,4-dihydro-2H-benzo[e][1,2]oxaborinine-8-carboxylic acid], in experiment [1], the EC50 was in the range of 30 to 500 µM. Besides, the MIC in experiment [2] (setting [10]) was greater than 128 µg/mL; in experiment [3] it was greater than 128 µg/mL; in [4] it was 0.5 to 1 µg/mL; in experiment [5] it was 8 to 16 µg/mL; in experiment [6], 8 to 16 µg/mL; in experiment [7] it was greater than 128 µg/mL. Besides, the MIC in experiment [8] and in experiment [9] was greater than 128 µg/mL in each case.

In the case of `CCN1CCN(C(=O)NC(C(=O)N[C@H]2Cc3cccc(C(=O)O)c3OB2O)c2ncccc2F)C(=O)C1=O` (stereo partly drawn) [Example 162, (3R)-3-(2-(4-ethyl-2,3-dioxopiperazine-1-carboxamido)-2-(3-fluoropyridin-2-yl)acetamido)-2-hydroxy-3,4-dihydro-2H-benzo[e][1,2]oxaborinine-8-carboxylic acid], the EC50 in experiment [1] lay in the range of 30 to 500 µM. Moreover, the MIC in experiment [2] (setting [10]) was in the range of 32 to 64 µg/mL; in experiment [3], 32 to 64 µg/mL; in [4], 0.5 to 1 µg/mL; in experiment [5], 2 to 4 µg/mL; in experiment [6] it was 8 to 16 µg/mL; in [7], 32 to 64 µg/mL. Also, the MIC in experiment [8] is 32 to 64 µg/mL; in experiment [9], greater than 128 µg/mL.

In the case of `CCN1CCN(C(=O)N[C@H](C(=O)N[C@H]2Cc3cccc(C(=O)O)c3OB2O)c2ccc(S(N)(=O)=O)c(O)c2)C(=O)C1=O` [Example 166, (R)-3-((S)-2-(4-ethyl-2,3-dioxopiperazine-1-carboxamido)-2-(3-hydroxy-4-sulfamoylphenyl)acetamido)-2-hydroxy-3,4-dihydro-2H-benzo[e][1,2]oxaborinine-8-carboxylic acid], the EC50 in experiment [1] was 30 to 500 µM. The MIC in [2] (setting [10]) is 32 to 64 µg/mL; in experiment [3], 32 to 64 µg/mL; in experiment [4], less than 0.25 µg/mL; in experiment [5] it was 2 to 4 µg/mL; in experiment [6], 2 to 4 µg/mL; in experiment [7], greater than 128 µg/mL. For the same molecule, the MIC in [8] is 32 to 64 µg/mL; in [9] it was greater than 128 µg/mL.

Consider `CCN1CCN(C(=O)N[C@@H](C(=O)N[C@H]2Cc3cccc(C(=O)O)c3OB2O)c2ccc(S(N)(=O)=O)c(O)c2)C(=O)C1=O` [Example 167, (R)-3-((R)-2-(4-ethyl-2,3-dioxopiperazine-1-carboxamido)-2-(3-hydroxy-4-sulfamoylphenyl)acetamido)-2-hydroxy-3,4-dihydro-2H-benzo[e][1,2]oxaborinine-8-carboxylic acid], for which the EC50 in experiment [1] (setting [11]) is less than 30 µM. Besides, the MIC was 32 to 64 µg/mL in experiment [2] (setting [10]); 32 to 64 µg/mL in experiment [3]; less than 0.25 µg/mL in experiment [4]; 2 to 4 µg/mL in experiment [5]; 2 to 4 µg/mL in experiment [6]; greater than 128 µg/mL in [7]. For the same molecule, the MIC in experiment [8] is 32 to 64 µg/mL; in experiment [9], greater than 128 µg/mL.

`CCN1CCN(C(=O)N[C@H](C(=O)N[C@H]2Cc3cccc(C(=O)O)c3OB2O)c2ccc(S(N)(=O)=O)c(OC)c2)C(=O)C1=O` [Example 168, (R)-3-((S)-2-(4-ethyl-2,3-dioxopiperazine-1-carboxamido)-2-(3-methoxy-4-sulfamoylphenyl)acetamido)-2-hydroxy-3,4-dihydro-2H-benzo[e][1,2]oxaborinine-8-carboxylic acid] registered an EC50 in experiment [1] of 30 to 500 µM. The MIC was greater than 128 µg/mL in experiment [2] (setting [10]); greater than 128 µg/mL in [3]; 0.5 to 1 µg/mL in [4]; 8 to 16 µg/mL in [5]; 8 to 16 µg/mL in experiment [6]; greater than 128 µg/mL in experiment [7]. The MIC in [8] and in [9] was greater than 128 µg/mL each time.

In experiment [1], `NS(=O)(=O)c1ccc([C@H](NC(=O)N2CCN(CCBr)C(=O)C2=O)C(=O)N[C@H]2Cc3cccc(C(=O)O)c3OB2O)cc1O` [Example 171, (R)-3-((S)-2-(4-(2-bromoethyl)-2,3-dioxopiperazine-1-carboxamido)-2-(3-hydroxy-4-sulfamoylphenyl)acetamido)-2-hydroxy-3,4-dihydro-2H-benzo[e][1,2]oxaborinine-8-carboxylic acid] came in with an EC50 of 30 to 500 µM. Further, the MIC in experiment [2] (ATCC25922, read-out: MIC E. coli 25922) was 32 to 64 µg/mL; in experiment [3], 32 to 64 µg/mL; in experiment [4], 0.5 to 1 µg/mL; in experiment [5], 8 to 16 µg/mL; in experiment [6], 0.5 to 1 µg/mL; in experiment [7] it was greater than 128 µg/mL. Also, the MIC in experiment [8] was 32 to 64 µg/mL; in [9] it was greater than 128 µg/mL.

In the case of `CCN1CCN(C(=O)N[C@H](C(=O)N[C@H]2Cc3cccc(C(=O)O)c3OB2O)c2ncc(O)cc2F)C(=O)C1=O` [Example 176, (R)-3-((S)-2-(4-ethyl-2,3-dioxopiperazine-1-carboxamido)-2-(3-fluoro-5-hydroxypyridin-2-yl)acetamido)-2-hydroxy-3,4-dihydro-2H-benzo[e][1,2]oxaborinine-8-carboxylic acid], the EC50 in [1] (setting [11]) is less than 30 µM. Moreover, the MIC is 32 to 64 µg/mL in experiment [2] (setting [10]); 32 to 64 µg/mL in [3]; less than 0.25 µg/mL in experiment [4]; 2 to 4 µg/mL in [5]; 2 to 4 µg/mL in [6]; 32 to 64 µg/mL in experiment [7]. Besides, the MIC in [8] is 32 to 64 µg/mL; in [9], greater than 128 µg/mL.

Consider `CCN1CCN(C(=O)NC(C(=O)N[C@H]2Cc3cccc(C(=O)O)c3OB2O)c2ncc(O)cc2C)C(=O)C1=O` (stereo partly drawn) [Example 178, (3R)-3-(2-(4-ethyl-2,3-dioxopiperazine-1-carboxamido)-2-(5-hydroxy-3-methylpyridin-2-yl)acetamido)-2-hydroxy-3,4-dihydro-2H-benzo[e][1,2]oxaborinine-8-carboxylic acid], for which, in experiment [1], the EC50 lay within 30 to 500 µM. The MIC in [2] (setting [10]) is greater than 128 µg/mL; in experiment [3], greater than 128 µg/mL; in [4] it was 8 to 16 µg/mL; in experiment [5] it was 32 to 64 µg/mL; in experiment [6], 32 to 64 µg/mL; in experiment [7], greater than 128 µg/mL. Moreover, the MIC in [8] and in [9] was greater than 128 µg/mL in each case.
